In patent US20220040255A1, “CHEMOTHERAPEUTIC REMODELING OF THE GUT MICROBIOME” (THE SCRIPPS RESEARCH INSTITUTE, priority 2018, published 2022):
Where a SMILES comes first, the peptide text is derived from it. [ ]: non-standard residue; d: D form.

How the values were obtained:
[1] = test system: bile acids; experiment: bile acids in feces and plasma by targeted metabolomics; format: in vivo; conditions: WD-fed LDLr−/− mice, 2-wk treatment
Procedure: Measurement of secondary bile acids. Feces were obtained between 0900-1100 am from non-fasted animals after a 2-wk treatment period. Bile acids were extracted from samples according to published procedures (Wegner et al., Anal. Bioanal. Chem. 409, 1231-1245, 2017). Briefly, fecal samples were lyophilized and homogenized. Five milligrams of fecal powder were extracted with 250 μl of methanol containing heavy internal standards. Fifty microliters of plasma were extracted with 150 μL of methanol containing heavy internal standards. After vortexing for 10 minutes and centrifuging (16,000×g, 4 C, 10 min), supernatants were transferred to glass vials for injection and analysis by LCMS. Bile acids were analyzed on a Dionex Ultimate 3000 LC system (Thermo) coupled to a TSQ Quantiva mass spectrometer (Thermo) fitted with a Kinetex C18 reversed phase column (2.6 μm, 150×2.1 mm i.d., Phenomenex). The following LC solvents were used: solution A, 0.1% formic acid and 20 mM ammonium acetate in water, solution B, acetonitrile/methanol (3/1, v/v) containing 0.1% formic acid and 20 mM ammonium acetate. The following reversed phase gradient was utilized: at a flow rate of 0.2 mL/min with a gradient consisting of 25-29% B in 1 min, 29-33% B in 14 min, 33-70% B in 15 min, up to 100% B in 1 min, 100% B for 9 min and re-equilibrated to 25% B for 10 min, for a total run time of 50 min. The injection volume for all samples was 10 μL, the column oven temperature was set to 50° C. and the autosampler kept at 4° C. MS analyses were performed using electrospray ionization in positive and negative ion modes, with spray voltages of 3.5 and −3 kV, respectively, ion transfer tube temperature of 325° C., and vaporizer temperature of 275° C. Multiple reaction monitoring (MRM) was performed by using mass transitions between specific parent ions into corresponding fragment ions for each analyte.

[2] = test system: mouse liver and ileum gene expression; experiment: host gene expression (mouse RNA-seq, qPCR); format: in vivo, mice; conditions: peptide-treated WD animals
Procedure: Mouse RNA-seq sample preparation and sequencing. Mouse tissues were harvested after 2 weeks of treatment, stored in RNAlater, and snap-frozen. 20-30 mg of mouse tissue was used for RNA extraction with RNeasy Mini Kit (Qiagen) following the manufacturer's instructions. Ribosomal RNA was removed from total RNA with Ribo-Zero Gold rRNA removal kit (Illumina). Strand-specific RNA-seq libraries were constructed as described previously (Hainer et al., Genes Dev. 29, 362-378, 2015). Libraries with different barcodes were pooled and single-end sequencing (75 bp) was performed on an Illumina NextSeq at the Scripps Research Institute next generation sequencing core.
Mouse RNA sequencing data analysis. After ribosomal RNA sequences were removed, the RNA transcripts were quantified using RSEM. […] Enrichment of Gene Ontology terms and categories was performed with DAVID 6.8.
Quantitative real-time PCR. To validate selected gene expression results, qPCR reactions were carried out. Mouse livers were harvested two weeks after peptide treatment and total RNA was extracted using RNeasy Mini (Qiagen) following manufacturer's instructions. […]

[3] = test system: gut microbiota transcriptome; experiment: bacterial RNA-seq of feces (microbiota transcriptome); format: in vivo, LDLr−/− mice
Procedure: Bacterial RNA-seq sample preparation and sequencing. Total bacterial RNA from feces samples was isolated with ZR Soil/Fecal RNA MicroPrep (Zymo research) following the manufacturer's instructions. Briefly, the sample was suspended in RNA lysis buffer and lysed by the mixer (Retsch). The supernatant was transferred to a RNA-binding column and washed several times with RNA wash buffer. In-column DNaseI digestion at 25° C. for 15 min was performed to eliminate DNA contamination in the sample. The presence of genomic DNA contamination was assessed by PCR with universal 16S rRNA gene primers. Before RNA-seq library preparation, rRNA was removed from 2 μg of total bacterial RNA with Ribo-Zero Bacteria kit (Illumina). 100 ng of purified RNA was used for RNA-seq library preparation as described previously^56. The cDNA was synthesized by reverse transcription with SuperScript III (Life technologies) and second-strand synthesis (New England Biolabs). The sequencing library was generated from purified cDNA with Nextera XT DNA library preparation kit (Illumina) and amplified by PCR. Cycling conditions were 72° C. for 3 min, 95° C. for 30 s, followed by 16 cycles of 95° C. for 10 s, 55° C. for 30 s, and 72° C. for 30 s. A condition of 72° C. for 5 min was used for the final elongation step. Libraries with different indexes were pooled and single-end sequencing (75 bp) was performed on an Illumina NextSeq at the Scripps Research Institute next generation sequencing core.
Functional analysis of bacterial RNA-seq data. We used BWA (version 0.7.12) read alignment program and a custom-built bacterial reference database, which contains 4,700 bacterial genomes from NCBI NR sequence database, to map RNA-seq reads. The reads aligned to individual bacterial genes were counted using HTSeq count (version 0.6.0) and the counts were further normalized based on size factors estimated using the median of the ratios of observed counts method as described previously (Anders et al., Genome Biol. 11, R106, 2010). The proteins predicted by RNA-seq read alignment were annotated with DIAMOND (version 0.8.26) using the NCBI nonredundant (NCBI-nr) database and the default setting (BLASTX e value <10^−3, bit score >50). For query genes with multiple matches, the annotated reference gene with the lowest e value was chosen. The functional analysis was performed by MEGAN (version 5.11.3) and KEGG analyzer was used to determine read counts in different metabolic pathways from each group. The aggregate expression level changes for sequences within a given function were normalized before the comparison between each group.

CC(C)C[C@@H]1NC(=O)[C@@H](Cc2c[nH]c3ccccc23)NC(=O)[C@H](CCCNC(=N)N)NC(=O)[C@@H](CCC(=O)O)NC(=O)[C@H](CCC(N)=O)NC(=O)[C@@H](CCC(=O)O)NC(=O)[C@H](CCCNC(=N)N)NC(=O)[C@@H](Cc2c[nH]c3ccccc23)NC1=O [c[wLwReQeR]] (cyclo([dW]L[dW]R[dE]Q[dE]R))
CA level ([1]; feces): 440 ± 490 pmol/mg feces | DCA level ([1]; feces): 4900 ± 2400 pmol/mg feces | HCA level ([1]; feces): 1.6 ± 1.1 pmol/mg feces | LCA level ([1]; feces): 400 ± 170 pmol/mg feces | T-CA level ([1]; feces): 8.3 ± 3.3 pmol/mg feces | T-DCA level ([1]; feces): 2.6 ± 1.2 pmol/mg feces | T-HCA level ([1]; feces): 0.097 ± 0.03 pmol/mg feces | T-α-MCA level ([1]; feces): 17 ± 8.7 pmol/mg feces | T-β-MCA level ([1]; feces): 20 ± 11 pmol/mg feces | T-ω-MCA level ([1]; feces): 3 ± 1.4 pmol/mg feces | UDCA level ([1]; feces): 43 ± 16 pmol/mg feces | α-MCA level ([1]; feces): 21 ± 8.9 pmol/mg feces | β-MCA level ([1]; feces): 65 ± 12 pmol/mg feces | ω-MCA level ([1]; feces): 170 ± 100 pmol/mg feces | CA level ([1]; plasma): 6300 ± 8300 pmol/mL plasma | DCA level ([1]; plasma): 2100 ± 2100 pmol/mL plasma | HCA level ([1]; plasma): 1.0 ± 0.84 pmol/mL plasma | LCA level ([1]; plasma): 100 ± 48 pmol/mL plasma | T-CA level ([1]; plasma): 16000 ± 31000 pmol/mL plasma | T-DCA level ([1]; plasma): 830 ± 1100 pmol/mL plasma | T-HCA level ([1]; plasma): 62 ± 110 pmol/mL plasma | T-α-MCA level ([1]; plasma): 1900 ± 3900 pmol/mL plasma | T-β-MCA level ([1]; plasma): 9800 ± 22000 pmol/mL plasma | T-ω-MCA level ([1]; plasma): 2400 ± 4900 pmol/mL plasma | UDCA level ([1]; plasma): 120 ± 92 pmol/mL plasma | α-MCA level ([1]; plasma): 10 ± 5.8 pmol/mL plasma | β-MCA level ([1]; plasma): 76 ± 75 pmol/mL plasma | ω-MCA level ([1]; plasma): 33 ± 11 pmol/mL plasma | expression of cholesterol 7 alpha-hydroxylase (Cyp7a1) [2]: significantly increased | overall gene expression from Bacteroidetes ([3]; feces, 2-week treatment): increased | overall gene expression from Firmicutes ([3]; feces, 2-week treatment): reduced | acetoacetate-CoA transferase levels compared to vehicle ([3]; microbiota transcriptome): higher | butyryl-CoA dehydrogenase levels compared to vehicle ([3]; microbiota transcriptome): lower
